Measured values taken from patent US5021458A, “Amine derivatives and fungicides containing the same” (Kaken Pharmaceutical Co., Ltd., priority 1984, dated 1991).
≈ marks a conversion by molar mass, not a printed value.

Assays:
[1] = tested on: Trichophyton mentagrophytes; test: Test on treatment of trichophytosis in guinea pig (Test Example 2); assay type: in vivo; conditions: 0.2 ml of 0.1 % solution in ethanol, once in a day for ten days since 48 hours after infection; guinea pig back skin
Experimental: In the back of male Hartley guinea pig weighing 600° to 700 g, four portions were unhaired in an area of 4 cm^2 respectively and rubbed lightly with sandpaper, to which the second generation of Trichophyton mentagrophytes incubated inversely from another guinea pig was infected at 1×10^5 spores per portion. The test compounds obtained in Example 1 was dissolved in ethanol and 0.2 ml of the resultant 0.1 % solution was applied to the infected portions once in a day for ten days since 48 hours after the infection. Test animal was killed 2 days after the last treatment and 10 tissue specimens from each infected portions were placed on Sabouraud's plates containing cycloheximide and kanamycin, which were incubated at 27° C. for 7 days.
inhibitory ratio ={1-(number of tissue specimens found fungi/number of tissue specimens incubated inversely)}×100

[2] = tested on: Trichophyton interdigitale; test: In vitro antifungal activity test (Test Example 1), Sabouraud's agar, Trichophyton interdigitale; assay type: cell-based; conditions: 168 h; (b) Trichophyton interdigitale; 27° C., 7 days; read-out: minimal growth-inhibitory concentration (MIC)
Experimental: (§1) The antifungal activity of the compound of the present invention against Trichophyton metagrophytes, Trichophyton interdigitale and Trichophyton rubrum was tested employing Sabouraud's agar medium.
(§2) Each test compound shown in Table 4 was dissolved into 1 ml of ethanol and thereto distilled water was added to adjust to the concentration of 1000 μg/ml. In this way twofold dilution series was made, 1 ml of which was respectively taken into shale and therewith 9 ml of Sabouraud's agar medium was mixed to form plate medium.
(§3) In this plate medium was implanted 0.0005 ml of each test fungus at 2×10^6 spores/ml by the microplanter MIP-2 (Sakuma Seisakusho Co., Ltd.) and was incubated at 27° C. for 7 days. The results were shown in Table 2 as the minimal growth-inhibitory concentration (MIC, μg/ml).

[3] = Side effect test on guinea pig skin (Test Example 3); assay type: in vivo, male Hartley guinea pig; conditions: 0.2 ml/day of 0.5 % solution in ethanol, once in a day for ten days; lightly rubbed guinea pig skin
Experimental: Two portions in the back of male Hartley guinea pig weighing 600° to 700 g were unhaired in an area of 4 cm^2 respectively in order to examine side effects of the test compounds. The next day unhaired portions were lightly rubbed with sandpaper. The test compounds obtained in Example 1 was dissolved in ethanol and 0.2 ml/day of the resultant 0.5 % solution was applied to one of the unhaired portions, while 0.2 ml/day of only ethanol was applied to the other portions, once in a day for ten days respectively.

Trichophyton rubrum = test: In vitro antifungal activity test (Test Example 1), Sabouraud's agar, Trichophyton rubrum; assay type: cell-based; conditions: 168 h; (c) Trichophyton rubrum; 27° C., 7 days; read-out: minimal growth-inhibitory concentration (MIC)
Experimental: as §1, §2, §3

[4] = tested on: Trichophyton mentagrophytes; test: In vitro antifungal activity test (Test Example 1), Sabouraud's agar, Trichophyton mentagrophytes; assay type: cell-based; conditions: 168 h; (a) Trichophyton mentagrophytes; 27° C., 7 days; read-out: minimal growth-inhibitory concentration (MIC)
Experimental: as §1, §2, §3

MIC [2] [µg/mL]	MIC (Trichophyton rubrum) [µg/mL]	MIC [4] [µg/mL]	Structure (SMILES)	inhibitory ratio [1] [%]	side effects [3]
0.006	0.003	0.0125	CN(Cc1ccc(C(C)(C)C)cc1)Cc1cccc2ccccc12.Cl [Example 1, N-(4-tert-butylbenzyl)-N-methyl-1-naphthylmethylamine hydrochloride]	82	side effects such as, for instance, erythema and papula were not observed
0.1 (≈ 0.302 µM)	0.1 (≈ 0.302 µM)	0.2 (≈ 0.603 µM)	Cc1ccc2ccccc2c1CN(C)Cc1ccc(C(C)(C)C)cc1 [Example 2]	–	–
0.05 (≈ 0.151 µM)	0.025 (≈ 0.0754 µM)	0.1 (≈ 0.302 µM)	Cc1ccc(CN(C)Cc2ccc(C(C)(C)C)cc2)c2ccccc12 [Example 3]	–	–
0.006 (≈ 0.0179 µM)	0.006 (≈ 0.0179 µM)	0.025 (≈ 0.0745 µM)	CN(Cc1ccc(C(C)(C)C)cc1)Cc1ccc(F)c2ccccc12 [Example 4]	–	–
0.1 (≈ 0.284 µM)	0.025 (≈ 0.071 µM)	0.1 (≈ 0.284 µM)	CN(Cc1ccc(C(C)(C)C)cc1)Cc1ccc(Cl)c2ccccc12 [Example 5]	–	–
0.2 (≈ 0.505 µM)	0.05 (≈ 0.126 µM)	0.2 (≈ 0.505 µM)	CN(Cc1ccc(C(C)(C)C)cc1)Cc1ccc(Br)c2ccccc12 [Example 6]	–	–
0.39 (≈ 0.88 µM)	0.39 (≈ 0.88 µM)	0.78 (≈ 1.76 µM)	CN(Cc1ccc(C(C)(C)C)cc1)Cc1ccc(I)c2ccccc12 [Example 7]	–	–
0.05 (≈ 0.138 µM)	0.025 (≈ 0.069 µM)	0.1 (≈ 0.276 µM)	CN(Cc1ccc(C(C)(C)C)cc1)Cc1cccc2c([N+](=O)[O-])cccc12 [Example 8]	–	–
0.025 (≈ 0.0754 µM)	0.003 (≈ 0.00905 µM)	0.025 (≈ 0.0754 µM)	CC(c1cccc2ccccc12)N(C)Cc1ccc(C(C)(C)C)cc1 (stereo not shown) [Example 9, N-4-tert-Butylbenzyl-N-methyl-1-(1-naphthyl)ethylamine]	–	–
1.56 (≈ 4.91 µM)	0.39 (≈ 1.23 µM)	1.56 (≈ 4.91 µM)	CN(Cc1ccc(C(C)(C)C)cc1)Cc1ccc2ccccc2c1 [Example 10]	–	–
0.0125 (≈ 0.0377 µM)	0.006 (≈ 0.0181 µM)	0.0125 (≈ 0.0377 µM)	CCC(C)(C)c1ccc(CN(C)Cc2cccc3ccccc23)cc1 [Example 12, N-Methyl-N-4-tert-pentylbenzyl-1-naphthylmethylamine]	–	–
25 (≈ 90.8 µM)	12.5 (≈ 45.4 µM)	25 (≈ 90.8 µM)	Cc1cccc(CN(C)Cc2cccc3ccccc23)c1 [Example 13]	–	–
6.25 (≈ 19 µM)	6.25 (≈ 19 µM)	12.5 (≈ 38 µM)	CN(Cc1cccc(C(F)(F)F)c1)Cc1cccc2ccccc12 [Example 14]	–	–
3.13 (≈ 11.4 µM)	0.39 (≈ 1.42 µM)	0.78 (≈ 2.83 µM)	Cc1ccc(CN(C)Cc2cccc3ccccc23)cc1 [Example 15]	–	–
1.56 (≈ 4.54 µM)	1.56 (≈ 4.54 µM)	3.13 (≈ 9.11 µM)	CN(Cc1ccc(C2CCCCC2)cc1)Cc1cccc2ccccc12 [Example 16]	–	–
1.56 (≈ 4.72 µM)	1.56 (≈ 4.72 µM)	1.56 (≈ 4.72 µM)	CN(Cc1ccc(Cl)c(Cl)c1)Cc1cccc2ccccc12 [Example 17]	–	–
0.05 (≈ 0.151 µM)	0.006 (≈ 0.0181 µM)	0.1 (≈ 0.302 µM)	CCN(Cc1ccc(C(C)(C)C)cc1)Cc1cccc2ccccc12 [Example 18]	–	–
0.2 (≈ 0.579 µM)	0.2 (≈ 0.579 µM)	0.78 (≈ 2.26 µM)	CCCN(Cc1ccc(C(C)(C)C)cc1)Cc1cccc2ccccc12 [Example 19]	–	–
6.25 (≈ 17.4 µM)	3.13 (≈ 8.71 µM)	6.25 (≈ 17.4 µM)	CCCCN(Cc1ccc(C(C)(C)C)cc1)Cc1cccc2ccccc12 [Example 20]	–	–

MIC [2] [µg/mL]	MIC (Trichophyton rubrum) [µg/mL]	MIC [4] [µg/mL]	Structure (SMILES)	inhibitory ratio [1] [%]	side effects [3]
0.1 (≈ 0.33 µM)	0.0125 (≈ 0.0412 µM)	0.025 (≈ 0.0824 µM)	CC(C)c1ccc(CN(C)Cc2cccc3ccccc23)cc1 [Example 22, N-4-Isopropylbenzyl-N-methyl-1-naphthylmethylamine]	–	–
0.2 (≈ 0.691 µM)	0.1 (≈ 0.346 µM)	0.1 (≈ 0.346 µM)	CCc1ccc(CN(C)Cc2cccc3ccccc23)cc1 [Example 23]	–	–
0.2 (≈ 0.63 µM)	0.1 (≈ 0.315 µM)	0.1 (≈ 0.315 µM)	CCCCc1ccc(CN(C)Cc2cccc3ccccc23)cc1 [Example 24]	–	–
0.78 (≈ 2.7 µM)	0.39 (≈ 1.35 µM)	0.78 (≈ 2.7 µM)	Cc1ccc(CN(C)Cc2cccc3ccccc23)cc1C [Example 25]	–	–
12.5 (≈ 43.2 µM)	6.25 (≈ 21.6 µM)	12.5 (≈ 43.2 µM)	Cc1cc(C)cc(CN(C)Cc2cccc3ccccc23)c1 [Example 26]	–	–
12.5	6.25	25	CN(Cc1ccc(C(C)(C)C)cc1)Cc1c(O)ccc2ccccc12.Cl [Example 28, N-(4-tert-butylbenzyl)-N-methyl-2-hydroxy-1-naphthylmethylamine hydrochloride]	–	–
–	0.05 (≈ 0.155 µM)	0.05 (≈ 0.155 µM)	CN(Cc1ccc(C(C)(C)C)cc1)Cc1csc2ccccc12 [Example 29, N-4-tert-Butylbenzyl-N-methyl-3-benzo[b]-thienylmethylamine]	–	–
–	0.78 (≈ 2.31 µM)	0.78 (≈ 2.31 µM)	CCN(Cc1ccc(C(C)(C)C)cc1)Cc1csc2ccccc12 [Example 30]	–	–
–	0.1 (≈ 0.296 µM)	0.2 (≈ 0.593 µM)	Cc1cccc2c(CN(C)Cc3ccc(C(C)(C)C)cc3)csc12 [Example 33]	–	–
–	0.025 (≈ 0.0773 µM)	0.025 (≈ 0.0773 µM)	CN(Cc1ccc(C(C)(C)C)cc1)Cc1cccc2sccc12 [Example 34]	–	–
–	0.78 (≈ 2.41 µM)	0.78 (≈ 2.41 µM)	CN(Cc1ccc(C(C)(C)C)cc1)Cc1cccc2ccsc12 [Example 35]	–	–
–	0.39 (≈ 1.21 µM)	0.39 (≈ 1.21 µM)	CN(Cc1ccc(C(C)(C)C)cc1)Cc1cccc2c1CCCC2 [Example 39]	–	–
–	0.2 (≈ 0.607 µM)	0.2 (≈ 0.607 µM)	CN(Cc1ccc2ccccc2c1)Cc1ccc(F)c2ccccc12 [Example 43]	–	–
–	0.39 (≈ 1.2 µM)	0.39 (≈ 1.2 µM)	Cc1ccc(CN(C)Cc2ccc3ccccc3c2)c2ccccc12 [Example 49]	–	–
–	0.2 (≈ 0.615 µM)	0.39 (≈ 1.2 µM)	CC(c1cccc2ccccc12)N(C)Cc1ccc2ccccc2c1 (stereo not shown) [Example 51]	–	–
–	0.1 (≈ 0.317 µM)	0.1 (≈ 0.317 µM)	CN(Cc1ccc2c(c1)CCCC2)Cc1cccc2ccccc12 [Example 54]	–	–
–	0.2 (≈ 0.607 µM)	0.2 (≈ 0.607 µM)	CCN(Cc1ccc2c(c1)CCCC2)Cc1cccc2ccccc12 [Example 56]	–	–
–	0.1 (≈ 0.307 µM)	0.39 (≈ 1.2 µM)	CCN(Cc1ccc2ccccc2c1)Cc1cccc2ccccc12 [Example 63]	–	–
–	0.025 (≈ 0.0773 µM)	0.05 (≈ 0.155 µM)	CN(Cc1ccc(C(C)(C)C)s1)Cc1cccc2ccccc12 [Example 69]	–	–
